Assay results: PubChem BioAssay AID248 (DTP/NCI, 2004)
Several values for one entry are separate records, joined by “and”; a condition that tells them apart may be missing. Equal values may be shown once. Toxic doses and inconclusive results are not listed. Cut-off read from the data, not from the text of the source: active = T/C of 150% or more; inactive = T/C below 125%.

Test system: L1210 leukemia ip in BDF1 mice, survival T/C
Experiment: NCI In Vivo Anticancer Drug Screen. Data for tumor model L1210 Leukemia (intraperitoneal) in B6D2F1 (BDF1) mice
Details: endpoint: mean survival time, higher = longer survival
In short: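 Value reflects the ratio of survival in compound-treated mice to survival in vehicle-treated controls, with both groups carrying the same transplanted tumor.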

[1] = dose: 100.0 mg/kg/injection, schedule: Q01DX009 (ip), vehicle: saline
[2] = dose: 200.0 mg/kg/injection, schedule: Q01DX009 (ip), vehicle: saline
[3] = dose: 100.0 mg/kg/injection, schedule: Q01DX001 (ip), vehicle: Klucel (hydroxypropylcellulose) (HPC)
[4] = dose: 200.0 mg/kg/injection, schedule: Q01DX001 (ip), vehicle: Klucel (hydroxypropylcellulose) (HPC)
[5] = dose: 400.0 mg/kg/injection, schedule: Q01DX001 (ip), vehicle: Klucel (hydroxypropylcellulose) (HPC)
[6] = dose: 100.0 mg/kg/injection, schedule: Q01DX009 (ip), vehicle: Klucel (hydroxypropylcellulose) (HPC)
[7] = dose: 200.0 mg/kg/injection, schedule: Q01DX009 (ip), vehicle: Klucel (hydroxypropylcellulose) (HPC)
[8] = dose: 400.0 mg/kg/injection, schedule: Q01DX009 (ip), vehicle: Klucel (hydroxypropylcellulose) (HPC)
[9] = dose: 50.0 mg/kg/injection, schedule: Q04DX002 (ip), vehicle: Klucel (hydroxypropylcellulose) (HPC)
[10] = dose: 100.0 mg/kg/injection, schedule: Q04DX002 (ip), vehicle: Klucel (hydroxypropylcellulose) (HPC)
[11] = dose: 50.0 mg/kg/injection, schedule: Q01DX001 (ip), vehicle: saline
[12] = dose: 100.0 mg/kg/injection, schedule: Q01DX001 (ip), vehicle: saline
[13] = dose: 200.0 mg/kg/injection, schedule: Q01DX001 (ip), vehicle: saline
[14] = dose: 400.0 mg/kg/injection, schedule: Q01DX001 (ip), vehicle: saline

Measured: T/C

COc1ccccc1C1CC(C(C)(C)C)CCC1OS(=O)(=O)c1ccc(C)cc1 (stereo unspecified)
inactive: dose: 50.0 mg/kg/injection, schedule: Q01DX009 (ip), vehicle: saline 90 % of control | [1] 92 % of control | dose: 100.0 mg/kg/injection, schedule: Q04DX003 (ip), vehicle: acetone 102 % of control | [2] 95 % of control | dose: 200.0 mg/kg/injection, schedule: Q04DX003 (ip), vehicle: acetone 96 % of control | dose: 400.0 mg/kg/injection, schedule: Q04DX003 (ip), vehicle: acetone 94 % of control

ClC1(c2ccccc2)C2CCCCC21 (stereo unspecified)
inactive: dose: 75.0 mg/kg/injection, schedule: Q01DX001 (ip), vehicle: saline 100 % of control | dose: 150.0 mg/kg/injection, schedule: Q01DX001 (ip), vehicle: saline 100 % of control

Nc1cccc(OCCCn2cc(-c3ccc(Cl)c(Cl)c3)c(N)nc2=O)c1
inactive: [3] 99 % of control | [4] 92 % of control | [5] 100 % of control

CCOCCNCC1OC(OC)C2OC(C)(C)OC12 (stereo unspecified)
inactive: dose: 100.0 mg/kg/injection, schedule: Q01DX005 (ip), vehicle: saline 103 % of control | dose: 200.0 mg/kg/injection, schedule: Q01DX005 (ip), vehicle: saline 103 % of control

O=C(O)c1cc2ccccc2c(Br)c1O.OC1CCCC2CCC[N-]C12.[Cu+]
inactive: dose: 4.0 mg/kg/injection, schedule: Q01DX015 (sc), vehicle: steriod suspending solution 97 % of control | dose: 16.0 mg/kg/injection, schedule: Q01DX015 (sc), vehicle: steriod suspending solution 103 % of control | dose: 32.0 mg/kg/injection, schedule: Q01DX015 (sc), vehicle: steriod suspending solution 100 % of control | dose: 50.0 mg/kg/injection, schedule: Q01DX001 (sc), vehicle: steriod suspending solution 98 % of control | dose: 100.0 mg/kg/injection, schedule: Q01DX001 (sc), vehicle: steriod suspending solution 111 % of control

COc1cccc(C[P+](C/C=C/c2ccccc2)(c2ccccc2)c2ccccc2)c1
inactive: dose: 6.25 mg/kg/injection, schedule: Q04DX003 (ip), vehicle: Klucel (hydroxypropylcellulose) (HPC) 109 % of control | dose: 12.5 mg/kg/injection, schedule: Q04DX003 (ip), vehicle: Klucel (hydroxypropylcellulose) (HPC) 88 % of control | dose: 25.0 mg/kg/injection, schedule: Q04DX003 (ip), vehicle: Klucel (hydroxypropylcellulose) (HPC) 97 % of control

CC1Oc2ccccc2-c2c(-c3ccccc3)nnc(-c3ccccc3)c21 (stereo unspecified)
inactive: dose: 100.0 mg/kg/injection, schedule: Q04DX003 (ip), vehicle: gum acacia 95 % of control | dose: 200.0 mg/kg/injection, schedule: Q04DX003 (ip), vehicle: gum acacia 102 % of control | dose: 400.0 mg/kg/injection, schedule: Q04DX003 (ip), vehicle: gum acacia 98 % of control

CC(=O)c1cccc(NC(=O)N2CCCCC2C)c1 (stereo unspecified)
inactive: [6] 111 % of control | [7] 112 % of control | [8] 103 % of control

OCC1OC2OC(c3ccccc3)(c3ccc(OCc4ccccc4)nc3OCc3ccccc3)OC2C1O (stereo unspecified)
inactive: dose: 100.0 mg/kg/injection, schedule: Q01DX001 (ip), vehicle: other 88 % of control | dose: 200.0 mg/kg/injection, schedule: Q01DX001 (ip), vehicle: other 90 % of control | dose: 400.0 mg/kg/injection, schedule: Q01DX001 (ip), vehicle: other 92 % of control

CCNC(=O)C1C(c2ccccc2)C1c1ccccc1 (stereo unspecified)
inactive: dose: 25.0 mg/kg/injection, schedule: Q04DX002 (ip), vehicle: Klucel (hydroxypropylcellulose) (HPC) 97 % of control | [9] 102 % of control | [10] 102 % of control

COCN1CCN(COC)C1=O
inactive: dose: 100.0 mg/kg/injection, schedule: Q04DX002 (ip), vehicle: saline 105 % of control | dose: 200.0 mg/kg/injection, schedule: Q04DX002 (ip), vehicle: saline 108 % of control | dose: 400.0 mg/kg/injection, schedule: Q04DX002 (ip), vehicle: saline 122 % of control

Nc1ncnc2c1nnn2C1OC(CO)C(O)C1O (stereo unspecified)
inactive: dose: 42.0 mg/kg/injection, schedule: Q01DX015 (ip), vehicle: saline 104 % of control | [11] 107 % of control | dose: 63.0 mg/kg/injection, schedule: Q01DX015 (ip), vehicle: saline 98 % of control | dose: 72.0 mg/kg/injection, schedule: Q01DX015 (ip), vehicle: saline 117 % of control | [3] 97 % of control | [12] 109 % of control and 106 % of control | dose: 100.0 mg/kg/injection, schedule: Q04DX003 (ip), vehicle: Klucel (hydroxypropylcellulose) (HPC) 95 % of control | dose: 180.0 mg/kg/injection, schedule: Q01DX001 (ip), vehicle: Klucel (hydroxypropylcellulose) (HPC) 120 % of control | dose: 180.0 mg/kg/injection, schedule: Q01DX001 (ip), vehicle: saline 113 % of control | [4] 92 % of control | [13] 116 % of control and 109 % of control | dose: 200.0 mg/kg/injection, schedule: Q04DX003 (ip), vehicle: Klucel (hydroxypropylcellulose) (HPC) 95 % of control | dose: 270.0 mg/kg/injection, schedule: Q01DX001 (ip), vehicle: Klucel (hydroxypropylcellulose) (HPC) 122 % of control | [5] 122 % of control and 97 % of control | [14] 106 % of control | dose: 400.0 mg/kg/injection, schedule: Q04DX003 (ip), vehicle: Klucel (hydroxypropylcellulose) (HPC) 92 % of control

O=C(CCCC(=O)N/N=C/c1ccc(I)cc1)N/N=C\c1ccc(I)cc1
inactive: [11] 100 % of control | [12] 93 % of control | [13] 93 % of control | [14] 97 % of control

CC(=O)Nc1ccc([N+](=O)[O-])cc1
inactive: dose: 100.0 mg/kg/injection, schedule: Q04DX002 (ip), vehicle: gum acacia 98 % of control | dose: 200.0 mg/kg/injection, schedule: Q04DX002 (ip), vehicle: gum acacia 88 % of control | dose: 400.0 mg/kg/injection, schedule: Q04DX002 (ip), vehicle: gum acacia 107 % of control

Nc1ccc(Nc2ccc([N+](=O)[O-])cc2)cc1
inactive: dose: 75.0 mg/kg/injection, schedule: Q01DX009 (ip), vehicle: Klucel (hydroxypropylcellulose) (HPC) 91 % of control | dose: 150.0 mg/kg/injection, schedule: Q01DX009 (ip), vehicle: Klucel (hydroxypropylcellulose) (HPC) 105 % of control | dose: 300.0 mg/kg/injection, schedule: Q01DX009 (ip), vehicle: Klucel (hydroxypropylcellulose) (HPC) 100 % of control

O=C1C2C3SC(c4nc5ccccc5cc43)C2C(=O)N1c1ccccc1 (stereo unspecified)
inactive: dose: 400.0 mg/kg/injection, schedule: Q01DX001 (ip), vehicle: saline with Tween-80 91 % of control

CCN1C(=O)Cc2ccccc21
inactive: [3] 98 % of control | [4] 102 % of control | [5] 93 % of control

COc1cc(CCN)ccc1O
inactive: [1] 87 % of control | [2] 90 % of control | dose: 400.0 mg/kg/injection, schedule: Q01DX009 (ip), vehicle: saline 95 % of control

Nc1nc(N)nc(N)n1
inactive: [9] 94 % of control | [6] 92 % of control and 113 % of control | [10] 94 % of control | [7] 92 % of control and 99 % of control | dose: 200.0 mg/kg/injection, schedule: Q04DX002 (ip), vehicle: Klucel (hydroxypropylcellulose) (HPC) 94 % of control and 105 % of control | [8] 95 % of control and 99 % of control | dose: 400.0 mg/kg/injection, schedule: Q04DX002 (ip), vehicle: Klucel (hydroxypropylcellulose) (HPC) 102 % of control | dose: 800.0 mg/kg/injection, schedule: Q01DX009 (ip), vehicle: Klucel (hydroxypropylcellulose) (HPC) 96 % of control | dose: 1000.0 mg/kg/injection, schedule: Q01DX009 (ip), vehicle: Klucel (hydroxypropylcellulose) (HPC) 103 % of control

CC1NC(=S)N(c2ccc(S(=O)(=O)c3ccc(N4C(=O)C(C)NC4=S)cc3)cc2)C1=O (stereo unspecified)
inactive: [12] 102 % of control | [13] 98 % of control | [14] 98 % of control
